Our source for the GI50 and TGI values is PubChem BioAssay (NCI).

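Cells were grown in 96-well plates and exposed to each compound for 48 hours at five concentrations; endpoints were interpolated linearly between bracketing concentrations, or set to the highest concentration if not reached. GI50: concentration for 50% inhibition of growth. TGI: concentration producing complete growth inhibition.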

Some test systems named below: LOX IMVI melanoma; IGROV1 ovarian; SNB-75 CNS; SR leukemia; NCI-H522 lung; HOP-62 NSCLC; MDA-MB-435; SNB-19 CNS; SK-MEL-2 melanoma; MDA-MB-231 breast.
What all share (test): NCI anticancer screen, dose series, 48 h

Regarding `CCS(=O)(=O)N1CCN(c2ccc(Nc3ncc(C(N)=O)c(NC4CC4)n3)cc2)CC1`, the GI50 in the assay on LOX IMVI melanoma was 3.07 µM; in the assay on IGROV1 ovarian, 5.29 µM; in the assay with SNB-75 CNS, 2.46 µM; in the assay on SR leukemia it was 2.78 µM; with NCI-H522 lung, 14.1 µM; in the assay on HOP-62 NSCLC, 3.51 µM. Also, the GI50 in the assay with MDA-MB-435 was 5.6 µM; with SNB-19 CNS it was 38 µM; in the assay on SK-MEL-2 melanoma, 4.62 µM; in the assay with MDA-MB-231 breast, 22.8 µM. Also, the TGI was greater than 100 µM with LOX IMVI melanoma; greater than 100 µM in the assay with IGROV1 ovarian; 9.53 µM in the assay with SNB-75 CNS; 23.4 µM with SR leukemia; 44.1 µM with NCI-H522 lung; 29.7 µM with HOP-62 NSCLC. Further, the TGI in the assay with MDA-MB-435 is greater than 100 µM; in the assay with SNB-19 CNS it was greater than 100 µM; with SK-MEL-2 melanoma, 21.4 µM; in the assay with MDA-MB-231 breast, greater than 100 µM.
Take `OCC1OC(n2cnc3c(NCc4ccccc4O)ncnc32)C(O)C1O` (stereo not given): the GI50 was 0.0695 µM in the assay on LOX IMVI melanoma; 0.649 µM in the assay with IGROV1 ovarian; 1.74 µM with SNB-75 CNS; 0.413 µM in the assay on SR leukemia; 0.0939 µM with NCI-H522 lung; 2.33 µM in the assay on HOP-62 NSCLC. In addition, the GI50 in the assay on MDA-MB-435 was 0.184 µM; in the assay with SNB-19 CNS it was 1.39 µM; with SK-MEL-2 melanoma, 0.328 µM; in the assay with MDA-MB-231 breast, 0.0769 µM. Besides, the TGI in the assay on LOX IMVI melanoma was 3.62 µM; in the assay on IGROV1 ovarian, 10.5 µM; with SNB-75 CNS it was 18.3 µM; in the assay with SR leukemia it was greater than 29.3 µM; in the assay on NCI-H522 lung, 1.54 µM; with HOP-62 NSCLC it was 18.2 µM. Moreover, the TGI with MDA-MB-435 is 3.2 µM; with SNB-19 CNS it was greater than 100 µM; in the assay with SK-MEL-2 melanoma, 1.83 µM; in the assay with MDA-MB-231 breast it was 3.28 µM.
In the case of `O=C(COc1cccc(/C=C2\Oc3ccc4ccccc4c3C2=O)c1)c1ccc([N+](=O)[O-])cc1`, the GI50 was 7.5 µM with LOX IMVI melanoma; 6.76 µM in the assay on IGROV1 ovarian; 18.9 µM in the assay on SNB-75 CNS; 0.305 µM in the assay with SR leukemia; 11.2 µM with NCI-H522 lung; 38.5 µM in the assay with HOP-62 NSCLC. The GI50 in the assay with MDA-MB-435 was 28.9 µM; with SNB-19 CNS, 34.1 µM; in the assay on SK-MEL-2 melanoma, greater than 100 µM; in the assay on MDA-MB-231 breast, 18.8 µM. For the same compound, the TGI in the assay with LOX IMVI melanoma was 20.5 µM; in the assay with IGROV1 ovarian, 40.7 µM; with SNB-75 CNS it was 53 µM; in the assay on SR leukemia, greater than 100 µM; in the assay on NCI-H522 lung, 29.3 µM; with HOP-62 NSCLC, greater than 100 µM. For the same compound, the TGI in the assay on MDA-MB-435 was greater than 100 µM; with SNB-19 CNS, greater than 100 µM; in the assay on SK-MEL-2 melanoma, greater than 100 µM; in the assay with MDA-MB-231 breast it was 68.8 µM.
On to `C/C=C(\C)C(=O)O[C@@H]1C=CC(=O)O[C@H]1CNC(=O)[C@H](C)O`, for which the GI50 in the assay on LOX IMVI melanoma was 15.9 µM; in the assay with IGROV1 ovarian, 26.6 µM; with SNB-75 CNS, 24.4 µM; with SR leukemia, 6.78 µM; in the assay with NCI-H522 lung it was 13.1 µM; with HOP-62 NSCLC, 26.4 µM. Further, the GI50 is 22.6 µM with MDA-MB-435, 27 µM in the assay with SNB-19 CNS, 20 µM in the assay with SK-MEL-2 melanoma and 21.8 µM in the assay on MDA-MB-231 breast. The TGI with LOX IMVI melanoma is 31.3 µM; in the assay on IGROV1 ovarian, greater than 78.1 µM; in the assay on SNB-75 CNS, greater than 74.3 µM; with SR leukemia it was 48.6 µM; in the assay with NCI-H522 lung, 30.5 µM; in the assay on HOP-62 NSCLC, 65.3 µM. Besides, the TGI in the assay on MDA-MB-435 was 82.1 µM; in the assay with SNB-19 CNS it was greater than 74.8 µM; in the assay on SK-MEL-2 melanoma, 48.5 µM; with MDA-MB-231 breast, 45.5 µM.
Turning to `NS(=O)(=O)c1cc(C(=O)O)c(Cl)c([N+](=O)[O-])c1Cl`, the TGI with LOX IMVI melanoma, in the assay on IGROV1 ovarian, in the assay with SNB-75 CNS, in the assay on SR leukemia, with NCI-H522 lung and in the assay with HOP-62 NSCLC was greater than 100 µM in each case. The TGI in the assay on MDA-MB-435, in the assay with SNB-19 CNS, in the assay with SK-MEL-2 melanoma and with MDA-MB-231 breast was greater than 100 µM each time.
In the case of `Cc1ccc(C2C3Cc4ccccc4C3=NN2c2ccc(S(=O)(=O)NC(=O)Nc3ccccc3)cc2)cc1` (stereo not given), the GI50 in the assay with LOX IMVI melanoma was 13.5 µM; with IGROV1 ovarian, 1.15 µM; in the assay on SNB-75 CNS it was 17.9 µM; in the assay with SR leukemia, 2.51 µM; in the assay with NCI-H522 lung it was 10.6 µM; with HOP-62 NSCLC it was 19.3 µM. Also, the GI50 in the assay with MDA-MB-435 was 18.7 µM; with SNB-19 CNS it was 25.4 µM; with SK-MEL-2 melanoma, 14.2 µM; with MDA-MB-231 breast, 10.8 µM. In addition, the TGI came to 27.9 µM in the assay with LOX IMVI melanoma; 19.7 µM in the assay on IGROV1 ovarian; 47.8 µM with SNB-75 CNS; 16.1 µM in the assay on SR leukemia; 28.7 µM in the assay with NCI-H522 lung; 63 µM in the assay with HOP-62 NSCLC. For the same compound, the TGI was 46.2 µM with MDA-MB-435, greater than 100 µM in the assay with SNB-19 CNS, 31.5 µM in the assay on SK-MEL-2 melanoma and 22.7 µM in the assay with MDA-MB-231 breast.
As for `CC(=O)/C=C/c1ccc(N(CCO)Cc2ccc(C(C)(C)C)cc2)cc1`, the GI50 is 28.3 µM in the assay with LOX IMVI melanoma; 112 µM with IGROV1 ovarian; 54.7 µM in the assay on SNB-75 CNS; 39.1 µM in the assay on SR leukemia; 84.8 µM in the assay with NCI-H522 lung; 104 µM in the assay with HOP-62 NSCLC. Further, the GI50 is 64 µM with MDA-MB-435, 116 µM in the assay on SNB-19 CNS, 96.7 µM in the assay with SK-MEL-2 melanoma and 87.9 µM in the assay on MDA-MB-231 breast. The TGI in the assay with LOX IMVI melanoma turned out to be 134 µM; in the assay on IGROV1 ovarian, 260 µM; in the assay with SNB-75 CNS, 200 µM; in the assay on SR leukemia it was 169 µM; with NCI-H522 lung, 237 µM; in the assay on HOP-62 NSCLC, 231 µM. For the same compound, the TGI came out at 196 µM in the assay on MDA-MB-435, 241 µM in the assay with SNB-19 CNS, 233 µM with SK-MEL-2 melanoma and 225 µM with MDA-MB-231 breast.
`O=C(Nc1cc2cc([N+](=O)[O-])ccc2oc1=O)c1cccs1`: the TGI in the assay with LOX IMVI melanoma was greater than 100 µM; with IGROV1 ovarian, greater than 100 µM; in the assay with SNB-75 CNS, 16.5 µM; with SR leukemia it was greater than 100 µM; in the assay with NCI-H522 lung, 84.7 µM; in the assay with HOP-62 NSCLC, greater than 100 µM. In addition, the TGI in the assay on MDA-MB-435 is 70.8 µM; in the assay with SNB-19 CNS, greater than 100 µM; with SK-MEL-2 melanoma, greater than 100 µM; in the assay with MDA-MB-231 breast, greater than 100 µM.
